Our source for the IC50 values is patent US10239873B2, “7-azaindole or 4,7-diazaindole derivatives as IKKϵ epsilon and TBK1 inhibitor and pharmaceutical composition comprising same” (GREEN CROSS CORPORATION, priority 2015, dated 2019).

The target in one experiment is T1, TBK1 (Homo sapiens, UniProt Q9UHD2).
T1 construct: purchased Promega (Invitrogen is also named in the same bracket) V4158; PR8031B; V3991 (not assigned to the two kinases)
T1 sequence (Q9UHD2 1-729): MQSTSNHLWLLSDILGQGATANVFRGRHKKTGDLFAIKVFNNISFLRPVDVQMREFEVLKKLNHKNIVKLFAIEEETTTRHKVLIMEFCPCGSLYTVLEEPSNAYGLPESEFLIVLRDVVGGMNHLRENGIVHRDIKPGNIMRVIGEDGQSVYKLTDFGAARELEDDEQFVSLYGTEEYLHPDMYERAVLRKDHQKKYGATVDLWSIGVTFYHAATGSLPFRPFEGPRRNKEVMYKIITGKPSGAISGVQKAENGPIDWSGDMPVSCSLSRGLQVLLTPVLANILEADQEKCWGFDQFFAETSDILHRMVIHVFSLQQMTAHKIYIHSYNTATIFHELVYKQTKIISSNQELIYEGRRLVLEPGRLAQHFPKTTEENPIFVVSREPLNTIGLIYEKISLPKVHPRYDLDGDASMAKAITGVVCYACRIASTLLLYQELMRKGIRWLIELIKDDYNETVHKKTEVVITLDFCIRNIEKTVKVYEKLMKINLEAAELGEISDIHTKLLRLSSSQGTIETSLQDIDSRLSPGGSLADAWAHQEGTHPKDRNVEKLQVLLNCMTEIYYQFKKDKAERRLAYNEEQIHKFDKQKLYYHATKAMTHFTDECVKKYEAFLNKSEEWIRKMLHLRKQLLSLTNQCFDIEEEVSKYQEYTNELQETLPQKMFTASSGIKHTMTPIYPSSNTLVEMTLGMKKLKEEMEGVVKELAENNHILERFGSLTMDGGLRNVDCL
In words: ADP-Glo Kinase Assay, inhibition activity on TBK1. Type of experiment: biochemical. A digest of the protocol: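 In 40 mM Tris pH 7.5 with 20 mM MgCl2 and 0.1 mg/mL BSA, each enzyme (IKKε or TBK1 kinase system) was run according to the manufacturer's protocol. ADP formed was detected by ADP-Glo luminescence.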

A further experiment concerns the target T2, IKKε (Homo sapiens, UniProt Q14164).
T2 construct: purchased Promega and/or Invitrogen V4158; PR8031B; V3991 (not assigned to the two kinases)
T2 sequence (Q14164 1-716): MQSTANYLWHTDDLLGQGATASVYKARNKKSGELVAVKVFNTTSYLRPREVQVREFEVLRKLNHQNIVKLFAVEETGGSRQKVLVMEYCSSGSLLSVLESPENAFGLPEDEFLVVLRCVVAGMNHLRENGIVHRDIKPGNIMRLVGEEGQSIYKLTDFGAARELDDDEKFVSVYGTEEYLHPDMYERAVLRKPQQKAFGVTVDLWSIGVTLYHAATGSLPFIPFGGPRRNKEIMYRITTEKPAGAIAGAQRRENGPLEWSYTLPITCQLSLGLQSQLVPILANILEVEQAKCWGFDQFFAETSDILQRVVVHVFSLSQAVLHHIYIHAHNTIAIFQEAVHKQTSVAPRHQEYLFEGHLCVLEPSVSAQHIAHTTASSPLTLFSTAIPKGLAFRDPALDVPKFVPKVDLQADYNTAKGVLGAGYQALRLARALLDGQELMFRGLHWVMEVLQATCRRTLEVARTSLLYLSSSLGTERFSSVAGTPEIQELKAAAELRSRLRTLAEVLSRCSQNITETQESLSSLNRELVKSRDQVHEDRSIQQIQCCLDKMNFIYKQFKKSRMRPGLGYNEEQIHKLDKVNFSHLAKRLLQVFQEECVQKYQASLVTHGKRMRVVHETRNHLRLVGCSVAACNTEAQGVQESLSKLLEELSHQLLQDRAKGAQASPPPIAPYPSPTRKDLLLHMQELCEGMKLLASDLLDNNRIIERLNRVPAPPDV
Nature of the experiment: ADP-Glo Kinase Assay, inhibition activity on IKKε. Type of experiment: biochemical. The procedure: Inhibition activities on IKKϵ and TBK1 were evaluated using the compounds of Examples 1 to 250.
The inhibition activities on IKKϵ and TBK1 were measured by a luminometer, IKKϵ/TBK1 Kinase Enzyme System (Promega, Ca# V4158; Invitrogen, PR8031B, Promega, Ca# V3991) and ADP-Glo Kinase Assay using ADP-Glo™ Kinase Analysis Kit (Promega, Ca# V9101) and a kinase reaction buffer [40 mM Tris(pH 7.5), 20 mM MgCl2, 0.1 mg/mL BSA] in accordance with the manufacturer's protocol.

`CC(C)NC(=O)N1CC=C(c2c[nH]c3ncc(-c4ccccc4)cc23)CC1` [Example 11, N-isopropyl-4-(5-phenyl-1H-pyrrolo[2,3-b]pyridin-3-yl)-5,6-dihydropyridine-1(2H)-carboxamide]: the IC50 turned out to be 24 nM at TBK1 and 8200 nM against IKKε.
The like results for `COc1ccc(-c2cnc3[nH]cc(C4=CCN(C(=O)NC(C)C)CC4)c3c2)cc1` [Example 12, N-isopropyl-4-(5-(4-methoxyphenyl)-1H-pyrrolo[2,3-b]pyridin-3-yl)-3,6-dihydropyridine-1(2H)-carboxamide] were, in that order, 29 nM and 2200 nM.
Regarding `CC(C)NC(=O)N1CC=C(c2c[nH]c3ncc(-c4ccc(F)cc4)cc23)CC1` [Example 13, 4-(5-(4-Fluorophenyl)-1H-pyrrolo[2,3-b]pyridin-3-yl)-N-isopropyl-3,6-dihydropyridine-1(2H)-carboxamide], the values for the IC50 against TBK1 and against IKKε were 31 nM and 6800 nM, respectively.
For `COc1cccc(-c2cnc3[nH]cc(C4=CCN(C(=O)NC(C)C)CC4)c3c2)c1` [Example 14, N-isopropyl-4-(5-(3-methoxyphenyl)-1H-pyrrolo[2,3-b]pyridin-3-yl)-3,6-dihydropyridine-1(2H)-carboxamide], the 50% inhibitory concentration (IC50) against TBK1 is 15 nM; against IKKε it was above 10000 nM.
The like results for `CC(C)NC(=O)N1CC=C(c2c[nH]c3ncc(-c4cccc(F)c4)cc23)CC1` [Example 15, 4-(5-(3-Fluorophenyl)-1H-pyrrolo[2,3-b]pyridin-3-yl)-N-isopropyl-3,6-dihydropyridine-1(2H)-carboxamide] were, in that order, 11 nM and above 10000 nM.
The like results for `Cc1ccc(-c2cnc3[nH]cc(C4=CCN(C(=O)NC(C)C)CC4)c3c2)cc1` [Example 16, N-isopropyl-4-(5-(p-tolyl)-1H-pyrrolo[2,3-b]pyridin-3-yl)-3,6-dihydropyridine-1(2H)-carboxamide] were, in that order, 36 nM and 280 nM.
The like results for `CC(=O)Nc1ccc(-c2cnc3[nH]cc(C4=CCN(C(=O)NC(C)C)CC4)c3c2)cc1` [Example 17, 4-(5-(4-Acetamidophenyl)-1H-pyrrolo[2,3-b]pyridin-3-yl)-N-isopropyl-3,6-dihydropyridine-1(2H)-carboxamide] were, in that order, 7.8 nM and 21 nM.
As for `COc1ccc(-c2cnc3[nH]cc(C4=CCN(C(=O)NC(C)C)CC4)c3c2)cc1OC` [Example 18, 4-(5-(3,4-Dimethoxyphenyl)-1H-pyrrolo[2,3-b]pyridin-3-yl)-N-isopropyl-5,6-dihydropyridine-1(2H)-carboxamide], the IC50 against TBK1 amounted to 2.5 nM; against IKKε, 45 nM.
For `CC(=O)Nc1cccc(-c2cnc3[nH]cc(C4=CCN(C(=O)NC(C)C)CC4)c3c2)c1` [Example 19, 4-(5-(3-Acetamidophenyl)-1H-pyrrolo[2,3-b]pyridin-3-yl)-N-isopropyl-3,6-dihydropyridine-1(2H)-carboxamide], the IC50 amounted to 6.4 nM on TBK1 and 7 nM against IKKε.
On to `CC(C)NC(=O)N1CC=C(c2c[nH]c3ncc(-c4ccc(CN5CCOCC5)cc4F)cc23)CC1` [Example 20, 4-(5-(2-Fluoro-4-(morpholinomethyl)phenyl)-1H-pyrrolo[2,3-b]pyridin-3-yl)-N-isopropyl-3,6-dihydropyridine-1(2H)-carboxamide], for which the IC50 amounted to 32 nM at TBK1 and 46 nM against IKKε.
`CC(C)NC(=O)N1CC=C(c2c[nH]c3ncc(-c4cc(CN5CCOCC5)ccc4F)cc23)CC1` [Example 21, 4-(5-(2-Fluoro-5-(morpholinomethyl)phenyl)-1H-pyrrolo[2,3-b]pyridin-3-yl)-N-isopropyl-3,6-dihydropyridine-1(2H)-carboxamide]: the 50% inhibitory concentration (IC50) was found to be 71 nM on TBK1 and 160 nM against IKKε.
In the case of `CCN1CCN(Cc2ccc(-c3cnc4[nH]cc(C5=CCN(C(=O)NC(C)C)CC5)c4c3)cc2)CC1` [Example 22, 4-(5-(4-((4-Ethylpiperazin-1-yl)methyl)phenyl)-1H-pyrrolo[2,3-b]pyridin-3-yl)-N-isopropyl-3,6-dihydropyridine-1(2H)-carboxamide], the IC50 was found to be 10 nM at TBK1 and 20 nM against IKKε.
The like results for `CC(C)NC(=O)N1CC=C(c2c[nH]c3ncc(-c4ccc(CN5CCN(C6CC6)CC5)cc4)cc23)CC1` [Example 23, 4-(5-(4-((4-Cyclopropylpiperazin-1-yl)methyl)phenyl)-1H-pyrrolo[2,3-b]pyridin-3-yl)-N-isopropyl-3,6-dihydropyridine-1(2H)-carboxamide] were, in that order, 5.7 nM and 6.6 nM.
The like results for `CCN1CCN(Cc2cccc(-c3cnc4[nH]cc(C5=CCN(C(=O)NC(C)C)CC5)c4c3)c2)CC1` [Example 24, 4-(5-(3-((4-Ethylpiperazin-1-yl)methyl)phenyl)-1H-pyrrolo[2,3-b]pyridin-3-yl)-N-isopropyl-3,6-dihydropyridine-1(2H)-carboxamide] were, in that order, 12 nM and 41 nM.
Consider `CC(C)NC(=O)N1CC=C(c2c[nH]c3ncc(-c4ccc(CN5CCN(C)CC5)nc4)cc23)CC1` [Example 25, N-isopropyl-4-(5-(6-((4-methylpiperazin-1-yl)methyl)pyridin-3-yl)-1H-pyrrolo[2,3-b]pyridin-3-yl)-3,6-dihydropyridine-1(2H)-carboxamide], for which the figures for the IC50 against TBK1 and against IKKε were 16 nM and 51 nM, respectively.
`CCN1CCN(Cc2ccc(-c3cnc4[nH]cc(C5=CCN(C(=O)NC(C)C)CC5)c4c3)s2)CC1` [Example 26, 4-(5-(5-((4-Ethylpiperazin-1-yl)methyl)thiophen-2-yl)-1H-pyrrolo[2,3-b]pyridin-3-yl)-N-isopropyl-3,6-dihydropyridine-1(2H)-carboxamide]: the IC50 worked out at 7.7 nM at TBK1 and 25 nM against IKKε.
With `CC(C)NC(=O)N1CC=C(c2c[nH]c3ncc(-c4ccc(CN5CCCC5)o4)cc23)CC1` [Example 27, N-isopropyl-4-(5-(5-(pyrrolidin-1-ylmethyl)furan-2-yl)-1H-pyrrolo[2,3-b]pyridin-3-yl)-5,6-dihydropyridine-1(2H)-carboxamide], the IC50 against TBK1 was 570 nM; on IKKε, 1980 nM.
The like results for `CC(C)NC(=O)N1CC=C(c2c[nH]c3ncc(-c4ccc(CN5CCCC5)s4)cc23)CC1` [Example 28, N-isopropyl-4-(5-(5-(pyrrolidin-1-ylmethyl)thiophen-2-yl)-1H-pyrrolo[2,3-b]pyridin-3-yl)-5,6-dihydropyridine-1(2H)-carboxamide] were, in that order, 18 nM and 58 nM.
Consider `CC(C)NC(=O)N1CC=C(c2c[nH]c3ncc(-c4cccc(CN5CCOCC5)c4)cc23)CC1` [Example 29, N-isopropyl-4-(5-(3-(morpholinomethyl)phenyl)-1H-pyrrolo[2,3-b]pyridin-3-yl)-5,6-dihydropyridine-1(2H)-carboxamide], for which the IC50 on TBK1 is 16 nM; against IKKε, 29 nM.
The like results for `CC(C)NC(=O)N1CC=C(c2c[nH]c3ncc(-c4ccc(CN5CCOCC5)cc4)cc23)CC1` [Example 30, N-isopropyl-4-(5-(4-(morpholinomethyl)phenyl)-1H-pyrrolo[2,3-b]pyridin-3-yl)-5,6-dihydropyridine-1(2H)-carboxamide] were, in that order, 4.5 nM and 8.8 nM.
